Test results as given in patent publication US11839216B1, “Quinoline-2,3-fused nine-membered ring scaffold compound, and preparation method and application thereof as effective component in plant fungicide” (QINGDAO AGRICULTURAL UNIVERSITY, priority 2022, dated 2023).

Key:
Assay in all cases: antibacterial activity by mycelial growth rate method
Type in all cases: cell-based
F. oxysporum = conditions: Fusarium oxysporum; for inhibition at 25 µg/mL: 25 mg/L; for inhibition at 50 µg/mL: 50 mg/L; for inhibition at 100 µg/mL: 100 mg/L
Experimental: (§1) Five common strains of C. gloeosporioides, V. mali, F. oxysporum, B. cinerea and G. graminis were selected, and the antibacterial activity of the compounds was tested by a mycelial growth rate method (Ann. Appl. Biol., 2008, 152, 369). The above strains for test were provided by Shangdong Biopesticide Engineering Research Center. Firstly, a certain amount of potato dextrose agar (PDA) was weighed and placed in a wide neck flask, distilled water was added to the wide-necked flask, to prepare a culture medium, and the culture medium was placed in an autoclave for sterilization at 120° C. for half an hour. 1 mg of drugs to be tested were weighed and dissolved in 10 mL of acetone to prepare 100 mg/L of agents, a half of agents therein were taken and diluted with the acetone to 10 mL to prepare 50 mg/L of agents, and 25 mg/L, 12.5 mg/L and 6.25 mg/L of agents might be prepared in such way. 5 mL of agents therein were taken and poured into 50 mL of potato dextrose agar for uniform mixing, and then the mixtures were poured into 5 culture media sterilized at high temperature respectively. The five pathogens were inoculated with inoculation loops respectively after cooling, sealed with sealing films and transferred to a proper temperature for observation. When colonies in the control group without the agents reached […], the colonies in the experimental groups were measured by a cross intersection method according to the following formula: Inhibition rate=(colony diameter of the control group−colony diameter of the experimental groups)/colony diameter of the control group×[…]

C. gloeosporioides = conditions: Colletotrichum gloeosporioides; for inhibition at 25 µg/mL: 25 mg/L; for inhibition at 50 µg/mL: 50 mg/L; for inhibition at 100 µg/mL: 100 mg/L
Experimental: as §1

B. cinerea = conditions: Botrytis cinerea; for inhibition at 25 µg/mL: 25 mg/L; for inhibition at 50 µg/mL: 50 mg/L; for inhibition at 100 µg/mL: 100 mg/L
Experimental: as §1

G. graminis = conditions: Gaeumannomyces graminis; for inhibition at 25 µg/mL: 25 mg/L; for inhibition at 50 µg/mL: 50 mg/L; for inhibition at 100 µg/mL: 100 mg/L
Experimental: as §1

V. mali = conditions: Cytospora mali; for inhibition at 25 µg/mL: 25 mg/L; for inhibition at 50 µg/mL: 50 mg/L; for inhibition at 100 µg/mL: 100 mg/L
Experimental: as §1

**Q.** `c1ccc(CN2Cc3cc4ccccc4nc3CC3CCCN3c3ccccc32)cc1` (stereo not drawn) [Compound 1] was tested. Which inhibition at 25 µg/mL (F. oxysporum) did it give?
**A.** Its inhibition at 25 µg/mL is 49.3%.

**Q.** What about the inhibition at 50 µg/mL (F. oxysporum) of the same compound?
**A.** Its inhibition at 50 µg/mL is 100%.

**Q.** And the inhibition at 100 µg/mL (F. oxysporum)?
**A.** The inhibition at 100 µg/mL was 100%.

**Q.** What about the inhibition at 25 µg/mL (C. gloeosporioides) of the same compound?
**A.** Its inhibition at 25 µg/mL is 100%.

**Q.** What about the inhibition at 50 µg/mL (C. gloeosporioides) of the same compound?
**A.** Its inhibition at 50 µg/mL is 100%.

**Q.** What about the inhibition at 100 µg/mL (C. gloeosporioides) of the same compound?
**A.** Its inhibition at 100 µg/mL is 100%.

**Q.** And the inhibition at 25 µg/mL (B. cinerea)?
**A.** Its inhibition at 25 µg/mL is at most 100%.

**Q.** And the inhibition at 50 µg/mL (B. cinerea)?
**A.** The inhibition at 50 µg/mL was 100%.

**Q.** What about the inhibition at 100 µg/mL (B. cinerea) of the same compound?
**A.** Its inhibition at 100 µg/mL is 100%.

**Q.** What about the inhibition at 25 µg/mL (G. graminis) of the same compound?
**A.** The inhibition at 25 µg/mL was 36.9%.

**Q.** What about the inhibition at 50 µg/mL (G. graminis) of the same compound?
**A.** Its inhibition at 50 µg/mL is 54.1%.

**Q.** What about the inhibition at 100 µg/mL (G. graminis) of the same compound?
**A.** Its inhibition at 100 µg/mL is 68.9%.

**Q.** And the inhibition at 25 µg/mL (V. mali)?
**A.** The inhibition at 25 µg/mL was at most 100%.

**Q.** And the inhibition at 50 µg/mL (V. mali)?
**A.** The inhibition at 50 µg/mL was 100%.

**Q.** What about the inhibition at 100 µg/mL (V. mali) of the same compound?
**A.** The inhibition at 100 µg/mL was 100%.

**Q.** With `Fc1ccc(CN2Cc3cc4ccccc4nc3CC3CCCN3c3ccccc32)cc1` (stereo not drawn) [Compound 2] as the compound, how does the inhibition at 25 µg/mL (F. oxysporum) read?
**A.** The inhibition at 25 µg/mL was 100%.

**Q.** What about the inhibition at 50 µg/mL (F. oxysporum) of the same compound?
**A.** The inhibition at 50 µg/mL was 100%.

**Q.** What about the inhibition at 100 µg/mL (F. oxysporum) of the same compound?
**A.** Its inhibition at 100 µg/mL is 100%.

**Q.** And the inhibition at 25 µg/mL (C. gloeosporioides)?
**A.** Its inhibition at 25 µg/mL is 92.4%.

**Q.** And the inhibition at 50 µg/mL (C. gloeosporioides)?
**A.** The inhibition at 50 µg/mL was 100%.

**Q.** And the inhibition at 100 µg/mL (C. gloeosporioides)?
**A.** The inhibition at 100 µg/mL was 100%.

**Q.** And the inhibition at 25 µg/mL (B. cinerea)?
**A.** The inhibition at 25 µg/mL was at most 100%.

**Q.** What about the inhibition at 50 µg/mL (B. cinerea) of the same compound?
**A.** The inhibition at 50 µg/mL was 100%.

**Q.** And the inhibition at 100 µg/mL (B. cinerea)?
**A.** Its inhibition at 100 µg/mL is 100%.

**Q.** And the inhibition at 25 µg/mL (G. graminis)?
**A.** Its inhibition at 25 µg/mL is 100%.

**Q.** And the inhibition at 50 µg/mL (G. graminis)?
**A.** Its inhibition at 50 µg/mL is 100%.

**Q.** What about the inhibition at 100 µg/mL (G. graminis) of the same compound?
**A.** Its inhibition at 100 µg/mL is 100%.

**Q.** And the inhibition at 25 µg/mL (V. mali)?
**A.** Its inhibition at 25 µg/mL is at most 100%.

**Q.** And the inhibition at 50 µg/mL (V. mali)?
**A.** The inhibition at 50 µg/mL was 100%.

**Q.** And the inhibition at 100 µg/mL (V. mali)?
**A.** The inhibition at 100 µg/mL was 100%.

**Q.** Which inhibition at 25 µg/mL (F. oxysporum) does the source give for `Cc1ccc(CN2Cc3cc4ccccc4nc3CC3CCCN3c3ccccc32)cc1` (stereo not drawn) [Compound 3] here?
**A.** Its inhibition at 25 µg/mL is 100%.

**Q.** And the inhibition at 50 µg/mL (F. oxysporum)?
**A.** Its inhibition at 50 µg/mL is 100%.

**Q.** And the inhibition at 100 µg/mL (F. oxysporum)?
**A.** The inhibition at 100 µg/mL was 100%.

**Q.** And the inhibition at 25 µg/mL (C. gloeosporioides)?
**A.** The inhibition at 25 µg/mL was 100%.

**Q.** What about the inhibition at 50 µg/mL (C. gloeosporioides) of the same compound?
**A.** Its inhibition at 50 µg/mL is 100%.

**Q.** What about the inhibition at 100 µg/mL (C. gloeosporioides) of the same compound?
**A.** Its inhibition at 100 µg/mL is 100%.

**Q.** And the inhibition at 25 µg/mL (B. cinerea)?
**A.** The inhibition at 25 µg/mL was at most 100%.

**Q.** And the inhibition at 50 µg/mL (B. cinerea)?
**A.** Its inhibition at 50 µg/mL is 100%.

**Q.** And the inhibition at 100 µg/mL (B. cinerea)?
**A.** Its inhibition at 100 µg/mL is 100%.

**Q.** And the inhibition at 25 µg/mL (G. graminis)?
**A.** Its inhibition at 25 µg/mL is 58.2%.

**Q.** What about the inhibition at 50 µg/mL (G. graminis) of the same compound?
**A.** The inhibition at 50 µg/mL was 62.1%.

**Q.** And the inhibition at 100 µg/mL (G. graminis)?
**A.** Its inhibition at 100 µg/mL is 100%.

**Q.** And the inhibition at 25 µg/mL (V. mali)?
**A.** The inhibition at 25 µg/mL was at most 100%.

**Q.** And the inhibition at 50 µg/mL (V. mali)?
**A.** Its inhibition at 50 µg/mL is 100%.

**Q.** And the inhibition at 100 µg/mL (V. mali)?
**A.** The inhibition at 100 µg/mL was 100%.

**Q.** Which results are given for `COc1cccc(CN2Cc3cc4ccccc4nc3CC3CCCN3c3ccccc32)c1` (stereo not drawn) [Compound 4]?
**A.** inhibition at 25 µg/mL (F. oxysporum): 100%; inhibition at 50 µg/mL (F. oxysporum): 100%; inhibition at 100 µg/mL (F. oxysporum): 100%; inhibition at 25 µg/mL (C. gloeosporioides): 100%; inhibition at 50 µg/mL (C. gloeosporioides): 100%; inhibition at 100 µg/mL (C. gloeosporioides): 100%; inhibition at 25 µg/mL (B. cinerea): ≤ 100%; inhibition at 50 µg/mL (B. cinerea): 100%; inhibition at 100 µg/mL (B. cinerea): 100%; inhibition at 25 µg/mL (G. graminis): 61.2%; inhibition at 50 µg/mL (G. graminis): 66.5%; inhibition at 100 µg/mL (G. graminis): 100%; inhibition at 25 µg/mL (V. mali): ≤ 100%; inhibition at 50 µg/mL (V. mali): 100%; inhibition at 100 µg/mL (V. mali): 100%

**Q.** What does the source list for `Cc1ccc(CN2Cc3cc4ccccc4nc3CC3CCCN3c3cc(Cl)ccc32)cc1` (stereo not drawn) [Compound 5]?
**A.** inhibition at 25 µg/mL (F. oxysporum): 100%; inhibition at 50 µg/mL (F. oxysporum): 100%; inhibition at 100 µg/mL (F. oxysporum): 100%; inhibition at 25 µg/mL (C. gloeosporioides): 88.1%; inhibition at 50 µg/mL (C. gloeosporioides): 100%; inhibition at 100 µg/mL (C. gloeosporioides): 100%; inhibition at 25 µg/mL (B. cinerea): ≤ 100%; inhibition at 50 µg/mL (B. cinerea): 100%; inhibition at 100 µg/mL (B. cinerea): 100%; inhibition at 25 µg/mL (G. graminis): 35.9%; inhibition at 50 µg/mL (G. graminis): 51.9%; inhibition at 100 µg/mL (G. graminis): 75.1%; inhibition at 25 µg/mL (V. mali): ≤ 100%; inhibition at 50 µg/mL (V. mali): 100%; inhibition at 100 µg/mL (V. mali): 100%

**Q.** How did the inhibition at 25 µg/mL (F. oxysporum) turn out when `Cc1ccc(CN2Cc3cc4cc(C(F)(F)F)ccc4nc3CC3CCCN3c3ccccc32)cc1` (stereo not drawn) [Compound 6] was run?
**A.** The inhibition at 25 µg/mL was 86.5%.

**Q.** And the inhibition at 50 µg/mL (F. oxysporum)?
**A.** The inhibition at 50 µg/mL was 100%.

**Q.** And the inhibition at 100 µg/mL (F. oxysporum)?
**A.** Its inhibition at 100 µg/mL is 100%.

**Q.** And the inhibition at 25 µg/mL (C. gloeosporioides)?
**A.** Its inhibition at 25 µg/mL is 74.6%.

**Q.** And the inhibition at 50 µg/mL (C. gloeosporioides)?
**A.** Its inhibition at 50 µg/mL is 82.1%.

**Q.** And the inhibition at 100 µg/mL (C. gloeosporioides)?
**A.** The inhibition at 100 µg/mL was 100%.

**Q.** What about the inhibition at 25 µg/mL (B. cinerea) of the same compound?
**A.** Its inhibition at 25 µg/mL is at most 100%.

**Q.** And the inhibition at 50 µg/mL (B. cinerea)?
**A.** The inhibition at 50 µg/mL was 100%.

**Q.** And the inhibition at 100 µg/mL (B. cinerea)?
**A.** Its inhibition at 100 µg/mL is 100%.

**Q.** And the inhibition at 25 µg/mL (G. graminis)?
**A.** The inhibition at 25 µg/mL was 56.3%.

**Q.** What about the inhibition at 50 µg/mL (G. graminis) of the same compound?
**A.** Its inhibition at 50 µg/mL is 100%.

**Q.** And the inhibition at 100 µg/mL (G. graminis)?
**A.** The inhibition at 100 µg/mL was 100%.

**Q.** What about the inhibition at 25 µg/mL (V. mali) of the same compound?
**A.** Its inhibition at 25 µg/mL is at most 100%.

**Q.** What about the inhibition at 50 µg/mL (V. mali) of the same compound?
**A.** The inhibition at 50 µg/mL was 100%.

**Q.** And the inhibition at 100 µg/mL (V. mali)?
**A.** Its inhibition at 100 µg/mL is 100%.
